Experimental data from patent publication US10183936B2, “Hepatitis B core protein allosteric modulators” (priority 2014, dated 2019).

Legend:
AD38 cells = assay: Viability of AD38 cells (Promega CellTiter-Glo) at the end of compound treatment; format: cell-based; conditions: 10 μM compound, 6 days, luminescence normalized against DMSO control wells (controls being 100%)
Description: (§1) Example 56: Assay Measuring Activity of Compounds on Viral Production in and on Viability of AD38 Cells
(§2) AD38 cells were then re-suspended with 10 mL of Treatment Medium and counted. Wells of a collagen coated 96-well NUNC microtiter plate were seeded at 50,000/well in 180 μL of Treatment Medium, and 20 μL of in treatment media with either 10% DMSO (Control) or a 10× solution of compound in 10% DMSO was added. Plates were incubated for 6 days at 37° C.
At the end of compound treatment period cell viability was assessed using a Promega CellTiter-Glo protocol. All supernatant was removed the previously treated 96-well microtiter plate, and 50 μL Tetracycline-free treatment medium (DMEM/F12 (1:1), lx Pen/step (cat#: 30-002-CL, Mediatech, Inc), with 2% FBS, Tet-system approved (cat#: 631106, Clontech), and 1% DMSO was added back to each well. Another 50 μL of CellTiter-Glo reagent solution (Promega, G7573) was then added at room temperature and the contents mixed for 2 minutes on an orbital shaker to induce cell lysis. This was followed by incubation at room temperature for 10 minutes to stabilize the luminescent signal. The luminescence was recorded for 0.2 seconds per well on a Tecan multimode platereader (Infinite M1000 pro). The luminescent signal from each well was normalized against that of untreated (DMSO) control wells. All results were reported percent viability (with controls being 100%).

[1] = tested on: HBV viral production in AD38 cells; assay: Viral load production in AD38 cells by quantitative PCR of the HBV core sequence in supernatant; format: cell-based; conditions: Hepatitis B virus, 144 h; 10 μM compound, 6 days at 37° C., viral load in supernatant compared against DMSO control wells; read-out: AD38 Viral Load (CpAM/DMSO %) at 10 μM
Description: as §1, §2
Viral load production was assayed by quantitative PCR of the core sequence. Briefly, 5 μL of clarified supematant was added to a PCR reaction mixture that contained forward primers HBV-f 5′-CTGTGCCTTGGGTGGCTTT-3′, Reverse primers HBV-r 5′-[…]-3′ and Fluorescent TaqMan™ Probes HBV-probe 5′-FAM/AGCTCCAAA/ZEN/[…]/3IABkFQ-3′ in Quanta Biosciences PerfeCTa® qPCR Toughmix®, and was subsequently on an Applied Biosystems VIIA7 in a final volume of 20 μL. The PCR mixture was incubated at 45° C. for 5 minutes, then 95° C. for 10 min, followed by 40 cycles of 10 seconds at 95° C. and 20 seconds at 60° C. Viral load was quantitated against known standards by using ViiA™ 7 Software. Viral load in the supematant from wells with treated cells were compared against viral load in supernatant from DMSO control wells (≥3 per plate).

Row | SMILES | AD38 Viability Normalized Result (CPAM/DMSO %) at 10 μM (AD38 cells) | activity at 10 µM [1]
1 | O=C(NCC1CC1)c1ccc2c(c1)NC(=O)c1ccccc1S2 [Compound 1173] | 105% | 39%
2 | O=C(NCC1CCC1)c1ccc2c(c1)NC(=O)c1ccccc1S2 [Compound 1174] | 109% | 35%
3 | O=C(NCCN1CCOCC1)c1ccc2c(c1)NC(=O)c1ccccc1S2 [Compound 1175] | 123% | 30%
4 | CCC(CNC(=O)c1ccc2c(c1)NC(=O)c1ccccc1S2)c1ccccc1 (stereo not drawn) [Compound 1176] | 104% | 2%
5 | CC(Cc1cccc(O)c1)NC(=O)c1ccc2c(c1)NC(=O)c1ccccc1S2 (stereo not drawn) [Compound 1177] | 118% | 47%
6 | O=C(NCCc1ccc(OC(F)(F)F)cc1)c1ccc2c(c1)NC(=O)c1ccccc1S2 [Compound 1182] | 55% | 13%
7 | Cc1cccc(CCNC(=O)c2ccc3c(c2)NC(=O)c2ccccc2S3)c1 [Compound 1183] | 36% | 2%
8 | Cc1ccc(CCNC(=O)c2ccc3c(c2)NC(=O)c2ccccc2S3)cc1 [Compound 1184] | 0% | 1%
9 | CCc1ccc(CCNC(=O)c2ccc3c(c2)NC(=O)c2ccccc2S3)cc1 [Compound 1185] | 0% | 1%
10 | O=C(NCCc1ccc(C(F)(F)F)cc1)c1ccc2c(c1)NC(=O)c1ccccc1S2 [Compound 1186] | 39% | 1%
11 | Cc1ccccc1CNC(=O)c1ccc2c(c1)NC(=O)c1ccccc1S2 [Compound 1187] | 73% | 1%
12 | CCc1ccc(CNC(=O)c2ccc3c(c2)NC(=O)c2ccccc2S3)cc1 [Compound 1188] | 83% | 4%
13 | O=C(NCC12CC3CC(CC(C3)C1)C2)c1ccc2c(c1)NC(=O)c1ccccc1S2 [Compound 1189] | 85% | 1%
14 | O=C(NCCc1cccs1)c1ccc2c(c1)NC(=O)c1ccccc1S2 [Compound 1190] | 70% | 1%
15 | O=C(NCCC1CCOCC1)c1ccc2c(c1)NC(=O)c1ccccc1S2 [Compound 1191] | 121% | 14%
16 | O=C(NCCOc1ccccc1)c1ccc2c(c1)NC(=O)c1ccccc1S2 [Compound 1192] | 81% | 3%
17 | O=C(NCC1CCCC1)c1ccc2c(c1)NC(=O)c1ccccc1S2 [Compound 1193] | 90% | 4%
18 | CC(C)(C)c1ccc(CCNC(=O)c2ccc3c(c2)NC(=O)c2ccccc2S3)cc1 [Compound 1194] | 45% | 1%
19 | O=C(NCCc1cccc(C(F)(F)F)c1)c1ccc2c(c1)NC(=O)c1ccccc1S2 [Compound 1195] | 48% | 0%
20 | O=C(NCc1ccc(O)cc1)c1ccc2c(c1)NC(=O)c1ccccc1S2 [Compound 1196] | 95% | 2%
21 | O=C(NCc1ccc(F)cc1)c1ccc2c(c1)NC(=O)c1ccccc1S2 [Compound 1197] | 88% | 1%

Row | SMILES | AD38 Viability Normalized Result (CPAM/DMSO %) at 10 μM (AD38 cells) | activity at 10 µM [1]
22 | O=C(NCCC1CCCCC1)c1ccc2c(c1)NC(=O)c1ccccc1C2 [Compound 1198] | 60% | 3%
23 | O=C(NCCC1CCCCC1)c1ccc2c(c1)Sc1ccccc1C(=O)N2 [Compound 1199] | 109% | 19%
24 | O=C(NCCc1ccccc1)c1ccc2c(c1)Sc1ccccc1C(=O)N2 [Compound 1200] | 125% | 18%
25 | O=C(NCCc1cccc(OC(F)(F)F)c1)c1ccc2c(c1)NC(=O)c1ccccc1S2 [Compound 1201] | 50% | 1%
26 | O=C(NCc1cccc(O)c1)c1ccc2c(c1)NC(=O)c1ccccc1S2 [Compound 1202] | 107% | 7%
27 | O=C(NCc1cccc(OC(F)(F)F)c1)c1ccc2c(c1)NC(=O)c1ccccc1S2 [Compound 1203] | 89% | 3%
28 | O=C(NCCC1CCC(O)CC1)c1ccc2c(c1)NC(=O)c1ccccc1S2 (stereo not drawn) [Compound 1204] | 97% | 2%
29 | O=C(NCCC1CCCCC1)c1ccc2c(c1)NC(=O)c1ccccc1S2(=O)=O [Compound 1206, N-(2-cyclohexylethyl)-11-oxo-10, 11-dihydrodibenzo [b,f] [1,4] thiazepine-8-carboxamide 5,5-dioxide] | 106% | 10%
30 | O=C(CCC1CCCCC1)Nc1ccc2c(c1)NC(=O)c1ccccc1S2 [Compound 1207] | 99% | 24%
31 | O=C(NCCOc1ccc(F)cc1)c1ccc2c(c1)NC(=O)c1ccccc1S2 [Compound 1208] | 103% | 11%
32 | O=C(NCCC1CCCO1)c1ccc2c(c1)NC(=O)c1ccccc1S2 (stereo not drawn) [Compound 1209] | 102% | 1%
33 | O=C(NCc1ccccn1)c1ccc2c(c1)NC(=O)c1ccccc1S2 [Compound 1210] | 116% | 25%
34 | O=C(NCc1cccnc1)c1ccc2c(c1)NC(=O)c1ccccc1S2 [Compound 1211] | 106% | 1%
35 | CC(CNC(=O)c1ccc2c(c1)NC(=O)c1ccccc1S2)c1ccccc1 (stereo not drawn) [Compound 1212] | 72% | 1%
36 | CC(C)(CNC(=O)c1ccc2c(c1)NC(=O)c1ccccc1S2)c1ccccc1 [Compound 1213] | 55% | 2%
37 | CCOc1ccc(CCNC(=O)c2ccc3c(c2)NC(=O)c2ccccc2S3)cc1 [Compound 1214] | 94% | 2%
38 | O=C(NCCC1CCC(F)(F)CC1)c1ccc2c(c1)NC(=O)c1ccccc1S2 [Compound 1216] | 125% | 1%
39 | O=C(NCCC1CCC(F)CC1)c1ccc2c(c1)NC(=O)c1ccccc1S2 (stereo not drawn) [Compound 1217] | 37% | 1%
40 | O=C(NCc1ccccc1O)c1ccc2c(c1)NC(=O)c1ccccc1S2 [Compound 1219] | 100% | 5%
41 | O=C(NC[C@H](O)c1ccccc1)c1ccc2c(c1)NC(=O)c1ccccc1S2 [Compound 1220] | 94% | 2%
42 | C[C@@H](O)CNC(=O)c1ccc2c(c1)NC(=O)c1ccccc1S2 [Compound 1221] | 106% | 19%
